Experimental data: patent US20240294572A1, “Antimicrobial Peptides” (priority 2021, published 2024)
Residues, ends and D or L forms follow the SMILES beside them. *: point of attachment. Decanoyl = CCCCCCCCCC(=O)*

Experiments:
Assay in all cases: Mass spectrometry of mouse plasma proteins bound to bead-immobilized peptide
Format in all cases: binding
Conditions in all cases: intensity bound to L-form / D-form of C10-KR8
[1] = molecular target: T1, Apolipoprotein A-I (Q00623) (Mus musculus, UniProt Q00623)
T1 construct: incubated with 5% mouse plasma; from tissue; host or cells: mouse plasma (5%)
T1 sequence (Q00623 19-264): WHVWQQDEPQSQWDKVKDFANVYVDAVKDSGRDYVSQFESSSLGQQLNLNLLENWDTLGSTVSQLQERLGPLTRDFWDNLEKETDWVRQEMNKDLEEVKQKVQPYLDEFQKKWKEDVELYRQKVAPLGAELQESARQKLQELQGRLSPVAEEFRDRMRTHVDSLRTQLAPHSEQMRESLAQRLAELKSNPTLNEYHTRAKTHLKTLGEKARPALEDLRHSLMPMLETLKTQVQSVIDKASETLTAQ
Method: (§1) Dynabeads M-370 amine (2×10^9 beads/mL, 50 μL; Thermo Fisher Scientific) were washed 3 times in sterile PBS (1 mL; GIBCO) and reacted with a bifunctional SM(PEG)4 cross-linker (5 mg/mL in DMSO) containing N-hydroxysuccinimide (NHS) ester and maleimide functional groups. A stable covalent bond between the amino group of beads and the NHS ester of the cross-linker was formed in PBS at pH 7.2 at room temperature for 24 hours with shaking at 80 rpm. The beads were then washed six times with PBS to remove nonreacted cross-linker. Next, peptide C10-KR8 (with a cysteine at the N-terminus) at 5 mg/mL was reacted with the free maleimide group in PBS for 24 hours at room temperature with shaking at 80 rpm. Another round of washing was conducted to remove the nonreacted peptides. Both the L-and D-forms of the peptide were coupled in the same manner. A portion of the beads without peptide coupling was saved as a control.
(§2) For serum binding experiments, the beads were resuspended in 500 μL of PBS; 200-μL aliquots of the coated and control dynabead were incubated with 5% mouse plasma for 18 hours at 37° C. After binding, the beads were washed six times with PBS to remove unbound proteins. Finally, the beads were suspended in 50 μL of PBS for mass spectrophotometric analysis to identify peptide-binding partners.
(§3) The samples were reduced by 10 mM dithiothreitol (DTT) and incubated for 30 minutes at 56° C. and back to room temperature. A final concentration of 50 mM iodoacetamide was added to alkylate free cysteines followed by further incubation for 20 min in the dark. Bound proteins were enzymatically digested by trypsin (4 μL of 0.5 μg/mL) overnight. A 60 […] portion was transferred to a new Eppendorf® tube and dried for 2 hours. The samples were then dissolved in 20 μL of 2% acetonitrile with 0.1% formic acid before being loaded to Q-tip columns (Pepclean, C18 spin column). Column was activated by pipetting in and out (4× times), 10 μL of 70% acetonitrile with 0.1% formic acid, and equilibrating with the same volume of 2% acetonitrile with 0.1% formic acid. Binding of the samples was done by mixing more than 10 × times, followed by washing in the same buffer (2% acetonitrile with 0.1% formic acid). The bound peptides were then eluted with 20 μL of 70% acetonitrile with 0.1% formic acid. Samples were subjected to LC-MS analysis after being suspended in the desired buffer.
(§4) Extracted peptides were resuspended in 2% acetonitrile (ACN) and 0.1% formic acid (FA) and loaded onto trap column Acclaim™ PepMap™ 100 75 μm×2 cm C18 LC Columns (Thermo Scientific) at a flow rate of 4 μL/minute. These were then separated with a Thermo RSLC UltiMate™ 3000 on a Thermo Easy-Spray PepMap™ M RSLC C18 75 μm×50 cm C-18 2 μm column (Thermo Scientific) with a step gradient of 4-25% solvent B (0.1% FA in 80% ACN) from 10 to 37 minutes and 25-45% solvent B for 37-46 minutes at 300 nL/min and 50° C. with a 70 minute total run time. Eluted peptides were analyzed by a Thermo Orbitrap Fusion™ Lumos™ Tribrid™ (Thermo Scientific) mass spectrometer in a data dependent acquisition mode. A survey full scan MS (from m/z 350-1800) was acquired in the orbitrap with a resolution of 120000. The AGC target for MS1 was set as 4×10^5 and the ion filling time set as 100 ms. The most intense ions with charge state 2-6 were isolated in 3 second cycle and fragmented using HCD fragmentation with 40% normalized collision energy and detected at a mass resolution of 30000 at 200 m/z. The AGC target for MS/MS was set as 5×10^4 and ion filling time set 60 ms dynamic exclusion was set for 30 seconds with a 10 ppm mass window. Protein identification was performed by searching MS/MS data against the Swiss-Prot mouse protein database. The search was set up for full tryptic peptides with a maximum of two missed cleavage sites. Acetylation of protein N-terminus and oxidized methionine were included as variable modifications, and carbamidomethylation of cysteine was set as fixed modification. […]

[2] = molecular target: T2, Apolipoprotein A-II (P09813) (Mus musculus, UniProt P09813)
T2 construct: incubated with 5% mouse plasma; from tissue; host or cells: mouse plasma (5%)
Method: as §1, §2, §3, §4

[3] = molecular target: T3, Apolipoprotein A-IV (P06728) (Mus musculus, UniProt P06728)
T3 construct: incubated with 5% mouse plasma; from tissue; host or cells: mouse plasma (5%)
T3 sequence (P06728 21-395): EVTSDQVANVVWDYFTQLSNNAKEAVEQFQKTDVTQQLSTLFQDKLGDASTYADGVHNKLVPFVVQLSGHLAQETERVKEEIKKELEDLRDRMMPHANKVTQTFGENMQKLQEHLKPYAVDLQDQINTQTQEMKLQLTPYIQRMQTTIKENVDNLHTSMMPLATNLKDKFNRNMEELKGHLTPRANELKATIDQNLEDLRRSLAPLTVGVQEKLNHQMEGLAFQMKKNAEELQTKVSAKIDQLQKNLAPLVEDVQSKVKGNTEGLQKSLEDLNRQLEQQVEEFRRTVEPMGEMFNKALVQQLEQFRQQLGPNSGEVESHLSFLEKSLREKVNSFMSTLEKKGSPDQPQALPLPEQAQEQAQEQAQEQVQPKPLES
Method: as §1, §2, §3, §4

[4] = molecular target: T4, Apolipoprotein C-I (P34928) (Mus musculus, UniProt P34928)
T4 construct: incubated with 5% mouse plasma; from tissue; host or cells: mouse plasma (5%)
T4 sequence (P34928 27-88): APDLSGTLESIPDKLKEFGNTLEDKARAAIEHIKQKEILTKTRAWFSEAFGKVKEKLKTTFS
Method: as §1, §2, §3, §4

[5] = molecular target: T5, Apolipoprotein E (P08226) (Mus musculus, UniProt P08226)
T5 construct: incubated with 5% mouse plasma; from tissue; host or cells: mouse plasma (5%)
T5 sequence (P08226 19-311): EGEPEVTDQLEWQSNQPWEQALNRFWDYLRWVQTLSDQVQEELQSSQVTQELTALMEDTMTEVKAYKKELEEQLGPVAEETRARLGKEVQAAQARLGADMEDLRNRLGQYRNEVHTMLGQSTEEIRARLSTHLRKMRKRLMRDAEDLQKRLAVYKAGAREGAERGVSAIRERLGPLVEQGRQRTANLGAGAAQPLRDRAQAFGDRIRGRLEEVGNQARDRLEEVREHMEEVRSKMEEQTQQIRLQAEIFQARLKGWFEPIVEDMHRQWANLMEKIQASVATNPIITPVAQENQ
Method: as §1, §2, §3, §4

Serum albumin (P07724) = molecular target: T6, Serum albumin (P07724) (Mus musculus, UniProt P07724)
T6 construct: incubated with 5% mouse plasma; from tissue; host or cells: mouse plasma (5%)
Method: as §1, §2, §3, §4

T2 sequence (P09813 19-102): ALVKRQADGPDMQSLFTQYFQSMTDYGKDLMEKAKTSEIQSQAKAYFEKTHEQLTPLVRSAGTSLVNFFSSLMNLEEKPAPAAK
T6 sequence (P07724 25-608): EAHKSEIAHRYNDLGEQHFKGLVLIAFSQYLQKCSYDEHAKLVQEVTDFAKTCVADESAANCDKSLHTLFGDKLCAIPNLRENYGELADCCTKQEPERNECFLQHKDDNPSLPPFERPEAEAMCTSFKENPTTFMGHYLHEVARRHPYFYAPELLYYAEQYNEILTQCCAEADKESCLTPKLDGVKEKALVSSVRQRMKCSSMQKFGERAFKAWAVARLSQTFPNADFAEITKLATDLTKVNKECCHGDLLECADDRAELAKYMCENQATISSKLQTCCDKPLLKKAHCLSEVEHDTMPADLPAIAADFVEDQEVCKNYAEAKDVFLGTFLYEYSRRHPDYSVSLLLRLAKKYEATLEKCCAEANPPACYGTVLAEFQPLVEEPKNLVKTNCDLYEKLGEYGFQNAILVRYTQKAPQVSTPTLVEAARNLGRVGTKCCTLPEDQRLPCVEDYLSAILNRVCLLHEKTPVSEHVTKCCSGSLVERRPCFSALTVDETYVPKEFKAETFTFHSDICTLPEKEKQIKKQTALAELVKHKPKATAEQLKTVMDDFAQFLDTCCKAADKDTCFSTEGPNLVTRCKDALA

## CCCCCCCCCC(=O)N[C@@H](CCCCN)C(=O)N[C@@H](CCCNC(=N)N)C(=O)N[C@H](C(=O)N[C@@H](Cc1c[nH]c2ccccc12)C(=O)N[C@@H](CCC(N)=O)C(=O)N[C@@H](CCCNC(=N)N)C(=O)N[C@H](C(=O)N[C@@H](CCCCN)C(N)=O)[C@@H](C)CC)[C@@H](C)CC [Peptide C10-KR8] (Decanoyl-KRIWQRIK-NH2)
[1]
  L/D Ratio, Apolipoprotein A-I: 3.54
[2]
  L/D Ratio, Apolipoprotein A-II: 0.00147
[3]
  L/D Ratio, Apolipoprotein A-IV: 2.89
[4]
  L/D Ratio, Apolipoprotein C-I: 2.08
[5]
  L/D Ratio, Apolipoprotein E: 0.811
Serum albumin (P07724)
  L/D Ratio, Serum albumin: 2.28
